Counter-ions that a name gives are not always drawn.
System: EGR1 promoter
Experiment: EGR1 reporter assay (luciferase) in genomically engineered HeLa cell line
Assay type: cell-based
Conditions: Homo sapiens; EGR1 reporter HeLa cells, luciferase activity after 24 hours with compound
Description: The compounds of the present invention can be characterized for their effect on expression of egr1 (early growth response protein 1) using an EGR1 reporter cell line.
The HeLa cell line was genetically modified to provide a simple, robust and highly reproducible cell-based assay reporting the activity of an endogenous EGR1 promoter. In brief, a construct encoding EGFP and luciferase proteins, separated by a self-cleaving P2A peptide was inserted, using CRISPR, immediately downstream (3′) to the promoter of endogenous EGR1. Upon treatment with compounds, cells express EGFP and luciferase from EGR1 promoter, which can be readily detected either in live cells using microscopy or cytometry, or through detection of luciferase activity in cell lysates.
To achieve stable genomic integration of an EGR1-promoter dual reporter, two plasmids were generated: one contained the reporter construct (eGFP-P2A-luciferase) flanked by homology arms that direct insertion into genomic DNA, by homologous recombination, of a break in genomic DNA generated by guide RNA targeted cleavage by Cas9 endonuclease. The gRNA expressing plasmid was based on px330 (56), into which a gRNA sequence that targets a break in gDNA close to the start codon of EGR1 was cloned. The left homology arm (encoding part of EGR1 promoter adjacent to its start codon) and right homology arm (encoding […] of start codon of EGR1) were cloned from gDNA using the following primers: […]
The present compounds can be tested, e.g. by using a HeLa cell line carrying an EGR1 reporter construct which allows for expression of luciferase and eGFP (enhanced GFP) controlled by the EGR1 promoter. For this reporter cells are seeded in the wells of a 384 well microtiter plate at a density of 2000 cells per well in 48 μl of DMEM supplemented with 4.5 g/l glucose, 2 mM glutamine and 10% FCS and are incubated for 24 hours at 37° C. with 5% CO2 and 95% humidity. Then, an eleven point 1:3 serial dilution of each test compound, from an initial concentration of 100 μM, is prepared in DMSO and the dilutions are added to the cells in a volume of 2 μl per well. The cells are incubated for a further 24 hours, after which the luciferase activity of each well is determined by addition of 25 μl of luciferase substrate reaction mixture (Britelite™ plus, Perkin Elmer) and measuring the bioluminescence light output (EnVision Xcite plate reader, PerkinElmer).
The compound of example 64 served as a positive control for this EGR1 reporter assay. The compound of example 64 had been identified in an initial high throughput screening campaign.

Q: CCc1ccc2c(CC(=O)Nc3nc(-c4ccccn4)cs3)coc2c1 [Example 5, 2-(6-Ethylbenzofuran-3-yl)-N-[4-(2-pyridyl)thiazol-2-yl]acetamide] was tested. Which EC50 did it give?
A: Its EC50 is 10 to 100 µM.

Q: CCOC(=O)c1csc(NC(=O)Cc2coc3cc(C)ccc23)n1 [Example 13, Ethyl 2-[[2-(6-methylbenzofuran-3-yl)acetyl]amino]thiazole-4-carboxylate] was tested. Which EC50 did it give?
A: The EC50 was 10 to 100 µM.

Q: Which EC50 does the source give for COc1ccc2c(CC(=O)Nc3nc(-c4ccncc4)cs3)coc2c1 [Example 25, 2-(6-Methoxybenzofuran-3-yl)-N-[4-(4-pyridyl)thiazol-2-yl]acetamide] here?
A: The EC50 was 0.01 to 10 µM.

Q: With Cc1ccc2c(CC(=O)Nc3nc(C)cs3)coc2c1 [Example 33, 2-(6-Methylbenzofuran-3-yl)-N-(4-methylthiazol-2-yl)acetamide] as the molecule, how does the EC50 read?
A: Its EC50 is 0.01 to 10 µM.

Q: How did the EC50 turn out when COc1c(C)ccc2c(CC(=O)Nc3ncc(C)s3)coc12 [Example 86, 2-(7-Methoxy-6-methyl-benzofuran-3-yl)-N-(5-methylthiazol-2-yl)acetamide] was run?
A: Its EC50 is 0.01 to 10 µM.

Q: How did the EC50 turn out when COc1c(C)ccc2c(CC(=O)Nc3ncc(C(F)(F)F)s3)coc12 [Example 97, 2-(7-Methoxy-6-methyl-benzofuran-3-yl)-N-[5-(trifluoromethyl)thiazol-2-yl]acetamide] was run?
A: The EC50 was 0.01 to 10 µM.

Q: For COc1ccc2c(CC(=O)Nc3ncc(C)s3)coc2c1C [Example 79, 2-(6-Methoxy-7-methyl-benzofuran-3-yl)-N-(5-methylthiazol-2-yl)acetamide], which EC50 is on record?
A: Its EC50 is 0.01 to 10 µM.

Q: How did the EC50 turn out when CC(=O)NCc1ccc(-c2csc(NC(=O)Cc3coc4cc5c(cc34)CCC5)n2)o1 [Example 19, N-[4-[5-(Acetamidomethyl)-2-furyl]thiazol-2-yl]-2-(6,7-dihydro-5H-cyclopenta[f]benzofuran-3-yl)acetamide] was run?
A: The EC50 was 10 to 100 µM.

Q: CCc1ccc2c(CC(=O)N(c3ccc(C(C)=O)cc3)c3nc4ccccc4s3)coc2c1 [Example 69, N-(4-Acetylphenyl)-N-(1,3-benzothiazol-2-yl)-2-(6-ethylbenzofuran-3-yl)acetamide] was tested. Which EC50 did it give?
A: The EC50 was 0.01 to 10 µM.

Q: For Cc1cnc(NC(=O)Cc2coc3c(Cl)c(Cl)ccc23)s1 [Example 75, 2-(6,7-Dichlorobenzofuran-3-yl)-N-(5-methylthiazol-2-yl)acetamide], which EC50 is on record?
A: Its EC50 is 0.01 to 10 µM.

Q: COc1ccc2c(CC(=O)Nc3nc(C)cs3)coc2c1 [Example 12, 2-(6-Methoxybenzofuran-3-yl)-N-(4-methylthiazol-2-yl)acetamide] was tested. Which EC50 did it give?
A: The EC50 was 10 to 100 µM.

Q: For COc1ccc(OC)c(-c2csc(NC(=O)Cc3coc4cc(C)ccc34)n2)c1 [Example 11, N-[4-(2,5-Dimethoxyphenyl)thiazol-2-yl]-2-(6-methylbenzofuran-3-yl)acetamide], which EC50 is on record?
A: Its EC50 is 10 to 100 µM.

Q: Which EC50 does the source give for Cc1ccc2c(CC(=O)N(c3ccc(SC(F)F)cc3)c3nc4ccccc4s3)coc2c1C [Example 82, N-(1,3-Benzothiazol-2-yl)-N-[4-(difluoromethylsulfanyl)phenyl]-2-(6,7-dimethylbenzofuran-3-yl)acetamide] here?
A: Its EC50 is 0.01 to 10 µM.

Q: Which EC50 does the source give for COc1ccc2c(CC(=O)N(c3ccc(C(C)=O)cc3)c3nc4ccccc4s3)coc2c1 [Example 68, N-(4-Acetylphenyl)-N-(1,3-benzothiazol-2-yl)-2-(6-methoxybenzofuran-3-yl)acetamide] here?
A: Its EC50 is 0.01 to 10 µM.

Q: With Cc1ccc2c(CC(=O)Nc3ncc(C(C)C)s3)coc2c1C [Example 95, 2-(6,7-Dimethylbenzofuran-3-yl)-N-(5-isopropylthiazol-2-yl)acetamide] as the molecule, how does the EC50 read?
A: The EC50 was 0.01 to 10 µM.

Q: CCc1cnc(NC(=O)Cc2coc3c(C)c(C)ccc23)s1 [Example 98, 2-(6,7-Dimethylbenzofuran-3-yl)-N-(5-ethylthiazol-2-yl)acetamide] was tested. Which EC50 did it give?
A: The EC50 was 0.01 to 10 µM.

Q: Which EC50 does the source give for CC(=O)NCCc1ccc(-c2csc(NC(=O)Cc3coc4cc(C)ccc34)n2)s1 [Example 28, N-[4-[5-(2-Acetamidoethyl)-2-thienyl]thiazol-2-yl]-2-(6-methylbenzofuran-3-yl)acetamide] here?
A: Its EC50 is 0.01 to 10 µM.

Q: NCc1ccc(-c2csc(NC(=O)Cc3coc4cc5c(cc34)CCC5)n2)o1 [Example 100, hydrochloride salt] was tested. Which EC50 did it give?
A: Its EC50 is 0.01 to 10 µM.

From patent publication US20200223837A1, “BENZOFURAN AMIDES AND HETEROAROMATIC ANALOGUES THEREOF FOR USE IN THERAPY” (European Molecular Biology Laboratory, priority 2017, published 2020)
